Results from the CheMixHub viscosity set.

Test: xn = mol fraction of the nth substance listed

c1ccc2ncccc2c1 + Oc1ccccc1Cl
Conditions | viscosity [mPa·s]
293.15 K, 101 kPa, x2 = 0.1686 | 6.62
293.15 K, 101 kPa, x2 = 0.3263 | 13
293.15 K, 101 kPa, x2 = 0.4251 | 23.62
293.15 K, 101 kPa, x2 = 0.4893 | 33.45
293.15 K, 101 kPa, x2 = 0.5043 | 35.1
293.15 K, 101 kPa, x2 = 0.534 | 36.9
293.15 K, 101 kPa, x2 = 0.5506 | 37.25
293.15 K, 101 kPa, x2 = 0.5803 | 36.62
293.15 K, 101 kPa, x2 = 0.6353 | 31.62
293.15 K, 101 kPa, x2 = 0.7227 | 21.85
293.15 K, 101 kPa, x2 = 0.8671 | 9.95
298 K, 101.3 kPa, x1 = 0.0761 | 4.871
298 K, 101.3 kPa, x1 = 0.1549 | 7.882
298 K, 101.3 kPa, x1 = 0.2343 | 11.68
298 K, 101.3 kPa, x1 = 0.3348 | 19.63
298 K, 101.3 kPa, x1 = 0.4286 | 26.3
298 K, 101.3 kPa, x1 = 0.5274 | 21.74
298 K, 101.3 kPa, x1 = 0.6364 | 12.94
298 K, 101.3 kPa, x1 = 0.7447 | 8.205
298 K, 101.3 kPa, x1 = 0.8898 | 4.628
303 K, 101.3 kPa, x1 = 0.0761 | 4.063
303 K, 101.3 kPa, x1 = 0.1549 | 6.073
303 K, 101.3 kPa, x1 = 0.2343 | 9.042
303 K, 101.3 kPa, x1 = 0.3348 | 14.39
303 K, 101.3 kPa, x1 = 0.4286 | 18.2
303 K, 101.3 kPa, x1 = 0.5274 | 16.12
303 K, 101.3 kPa, x1 = 0.6364 | 10.29
303 K, 101.3 kPa, x1 = 0.7447 | 6.433
303 K, 101.3 kPa, x1 = 0.8898 | 4.058
303.15 K, 101 kPa, x2 = 0.1686 | 4.87
303.15 K, 101 kPa, x2 = 0.3263 | 9.11
303.15 K, 101 kPa, x2 = 0.4251 | 14.4
303.15 K, 101 kPa, x2 = 0.4893 | 17.92
303.15 K, 101 kPa, x2 = 0.5043 | 18.4
303.15 K, 101 kPa, x2 = 0.534 | 19
303.15 K, 101 kPa, x2 = 0.5506 | 19.01
303.15 K, 101 kPa, x2 = 0.5803 | 18.88
303.15 K, 101 kPa, x2 = 0.6353 | 17.42
303.15 K, 101 kPa, x2 = 0.7227 | 12.82
303.15 K, 101 kPa, x2 = 0.8671 | 6.41
308 K, 101.3 kPa, x1 = 0.0761 | 3.469
308 K, 101.3 kPa, x1 = 0.1549 | 5.006
308 K, 101.3 kPa, x1 = 0.2343 | 7.403
308 K, 101.3 kPa, x1 = 0.3348 | 11.49
308 K, 101.3 kPa, x1 = 0.4286 | 14.09
308 K, 101.3 kPa, x1 = 0.5274 | 12.37
308 K, 101.3 kPa, x1 = 0.6364 | 8.401
308 K, 101.3 kPa, x1 = 0.7447 | 5.506
308 K, 101.3 kPa, x1 = 0.8898 | 3.581
313 K, 101.3 kPa, x1 = 0.0761 | 2.998
313 K, 101.3 kPa, x1 = 0.1549 | 4.205
313 K, 101.3 kPa, x1 = 0.2343 | 6.048
313 K, 101.3 kPa, x1 = 0.3348 | 9.267
313 K, 101.3 kPa, x1 = 0.4286 | 11.03
313 K, 101.3 kPa, x1 = 0.5274 | 9.852
313 K, 101.3 kPa, x1 = 0.6364 | 7.017
313 K, 101.3 kPa, x1 = 0.7447 | 4.762
313 K, 101.3 kPa, x1 = 0.8898 | 3.171
313.15 K, 101 kPa, x2 = 0.1686 | 3.71
313.15 K, 101 kPa, x2 = 0.3263 | 6.35
313.15 K, 101 kPa, x2 = 0.4251 | 8.96
313.15 K, 101 kPa, x2 = 0.4893 | 10.47
313.15 K, 101 kPa, x2 = 0.5043 | 10.73
313.15 K, 101 kPa, x2 = 0.534 | 10.95
313.15 K, 101 kPa, x2 = 0.5506 | 10.98
313.15 K, 101 kPa, x2 = 0.5803 | 10.89
313.15 K, 101 kPa, x2 = 0.6353 | 10
313.15 K, 101 kPa, x2 = 0.7227 | 7.64
313.15 K, 101 kPa, x2 = 0.8671 | 4.33
318 K, 101.3 kPa, x1 = 0.0761 | 2.614
318 K, 101.3 kPa, x1 = 0.1549 | 3.59
318 K, 101.3 kPa, x1 = 0.2343 | 4.979
318 K, 101.3 kPa, x1 = 0.3348 | 7.306
318 K, 101.3 kPa, x1 = 0.4286 | 8.786
318 K, 101.3 kPa, x1 = 0.5274 | 7.927
318 K, 101.3 kPa, x1 = 0.6364 | 5.922
318 K, 101.3 kPa, x1 = 0.7447 | 4.17
318 K, 101.3 kPa, x1 = 0.8898 | 2.824

O=C([O-])[O-].[Na+].[Na+] + [2H]O[2H]
viscosity [mPa·s], 101 kPa
Conditions | x1 = 0.009 | x1 = 0.018 | x1 = 0.031 | x1 = 0.041
298.15 K | 1.4 | 1.847 | 2.881 | 4.233
308.15 K | 1.094 | 1.443 | 2.174 | 3.115
318.15 K | 0.895 | 1.167 | 1.725 | 2.435

CCC(C)=O + c1ccccc1
Conditions | viscosity [mPa·s]
293.15 K, 101 kPa, x1 = 0.2 | 0.569
293.15 K, 101 kPa, x1 = 0.4 | 0.511
293.15 K, 101 kPa, x1 = 0.5 | 0.487
293.15 K, 101 kPa, x1 = 0.6 | 0.471
293.15 K, 101 kPa, x1 = 0.8 | 0.435
298 K, 101.33 kPa, x2 = 0.1513 | 0.3919
298 K, 101.33 kPa, x2 = 0.2663 | 0.4141
298 K, 101.33 kPa, x2 = 0.2941 | 0.4175
298 K, 101.33 kPa, x2 = 0.4321 | 0.4408
298 K, 101.33 kPa, x2 = 0.5597 | 0.4674
298 K, 101.33 kPa, x2 = 0.6057 | 0.4775
298 K, 101.33 kPa, x2 = 0.7302 | 0.5097
298 K, 101.33 kPa, x2 = 0.8777 | 0.5571
298.15 K, 101 kPa, x2 = 0.106 | 0.4072
298.15 K, 101 kPa, x2 = 0.197 | 0.4173
298.15 K, 101 kPa, x2 = 0.3 | 0.4324
298.15 K, 101 kPa, x2 = 0.4 | 0.4487
298.15 K, 101 kPa, x2 = 0.5 | 0.4672
298.15 K, 101 kPa, x2 = 0.615 | 0.4908
298.15 K, 101 kPa, x2 = 0.694 | 0.508
298.15 K, 101 kPa, x2 = 0.793 | 0.5355
298.15 K, 101 kPa, x2 = 0.895 | 0.5683
299.15 K, 101.3 kPa, x2 = 0.098 | 0.41
299.15 K, 101.3 kPa, x2 = 0.198 | 0.425
299.15 K, 101.3 kPa, x2 = 0.298 | 0.443
299.15 K, 101.3 kPa, x2 = 0.398 | 0.455
299.15 K, 101.3 kPa, x2 = 0.498 | 0.474
299.15 K, 101.3 kPa, x2 = 0.599 | 0.497
299.15 K, 101.3 kPa, x2 = 0.699 | 0.519
299.15 K, 101.3 kPa, x2 = 0.799 | 0.546
299.15 K, 101.3 kPa, x2 = 0.899 | 0.584
303.15 K, 101 kPa, x1 = 0.1023 | 0.538
303.15 K, 101 kPa, x1 = 0.2 | 0.498
303.15 K, 101 kPa, x1 = 0.2042 | 0.509
303.15 K, 101 kPa, x1 = 0.395 | 0.467
303.15 K, 101 kPa, x1 = 0.4 | 0.454
303.15 K, 101 kPa, x1 = 0.5 | 0.434
303.15 K, 101 kPa, x1 = 0.5129 | 0.444
303.15 K, 101 kPa, x1 = 0.6 | 0.42
303.15 K, 101 kPa, x1 = 0.6822 | 0.42
303.15 K, 101 kPa, x1 = 0.8 | 0.391
303.15 K, 101 kPa, x1 = 0.853 | 0.396
307.35 K, 101.33 kPa, x1 = 0.0925 | 0.501
307.35 K, 101.33 kPa, x1 = 0.2405 | 0.462
307.35 K, 101.33 kPa, x1 = 0.3178 | 0.446
307.35 K, 101.33 kPa, x1 = 0.4477 | 0.424
307.35 K, 101.33 kPa, x1 = 0.5084 | 0.41
307.35 K, 101.33 kPa, x1 = 0.616 | 0.394
307.35 K, 101.33 kPa, x1 = 0.7356 | 0.378
308.15 K, 101 kPa, x1 = 0.2 | 0.471
308.15 K, 101 kPa, x1 = 0.4 | 0.431
308.15 K, 101 kPa, x1 = 0.5 | 0.414
308.15 K, 101 kPa, x1 = 0.6 | 0.401
308.15 K, 101 kPa, x1 = 0.8 | 0.373
318.15 K, 101 kPa, x1 = 0.2 | 0.421
318.15 K, 101 kPa, x1 = 0.4 | 0.388
318.15 K, 101 kPa, x1 = 0.5 | 0.373
318.15 K, 101 kPa, x1 = 0.6 | 0.362
318.15 K, 101 kPa, x1 = 0.8 | 0.339
